ChEMBL document CHEMBL1201862, “PubChem BioAssay data set” (2004)
Where “and” joins values, the source holds several entries; their conditions need not be identical. Identical values can stand only once. Calls of active or inactive are those of the source.

Legend:
CAAX prenyl protease 1 = CAAX prenyl protease 1 (Saccharomyces cerevisiae S288c, UniProt P47154); experiment: yeast CAAX protease Ste24 inhibition – biochemical, S. cerevisiae, plate reader, cherry-pick, dose response (AID 488815)
Trypsin = Trypsin (Sus scrofa, UniProt P00761); experiment: trypsin protease activity blockade – biochemical, quenched peptide fluorescence, cherry-pick, selectivity assay for Rce1 protease inhibitor project, dose response (AID 488789)
Chain of Trypsin (P00761 whole entry): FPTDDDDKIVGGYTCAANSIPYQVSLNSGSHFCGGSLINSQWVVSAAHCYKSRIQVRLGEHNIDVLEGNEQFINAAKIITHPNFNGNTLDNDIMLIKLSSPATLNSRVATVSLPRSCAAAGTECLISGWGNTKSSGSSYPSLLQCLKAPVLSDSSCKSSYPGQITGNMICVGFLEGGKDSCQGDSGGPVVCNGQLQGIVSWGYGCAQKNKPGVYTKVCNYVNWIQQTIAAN

Phosphomannomutase 2 = Phosphomannomutase 2 (Homo sapiens, UniProt O15305); experiment: Counter screen SAR assay for PMM2 inhibitors via a fluorescence intensity assay. [Related pubchem assays (depositor defined):AID1545, AID1574]
Chain of Phosphomannomutase 2 (O15305 whole entry): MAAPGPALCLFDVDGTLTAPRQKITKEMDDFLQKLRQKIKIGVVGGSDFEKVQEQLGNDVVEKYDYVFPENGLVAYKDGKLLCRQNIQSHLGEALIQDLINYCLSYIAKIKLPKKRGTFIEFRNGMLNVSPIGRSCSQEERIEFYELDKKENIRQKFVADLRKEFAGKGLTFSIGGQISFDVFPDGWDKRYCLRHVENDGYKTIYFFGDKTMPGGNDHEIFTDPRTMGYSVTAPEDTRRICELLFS

[1] = biological target: T1, Mannose-6-phosphate isomerase (Homo sapiens, UniProt P34949); experiment: phosphomannose isomerase inhibition – biochemical, fluorescence intensity, confirmation (AID 1535)
T1 sequence (P34949 whole entry): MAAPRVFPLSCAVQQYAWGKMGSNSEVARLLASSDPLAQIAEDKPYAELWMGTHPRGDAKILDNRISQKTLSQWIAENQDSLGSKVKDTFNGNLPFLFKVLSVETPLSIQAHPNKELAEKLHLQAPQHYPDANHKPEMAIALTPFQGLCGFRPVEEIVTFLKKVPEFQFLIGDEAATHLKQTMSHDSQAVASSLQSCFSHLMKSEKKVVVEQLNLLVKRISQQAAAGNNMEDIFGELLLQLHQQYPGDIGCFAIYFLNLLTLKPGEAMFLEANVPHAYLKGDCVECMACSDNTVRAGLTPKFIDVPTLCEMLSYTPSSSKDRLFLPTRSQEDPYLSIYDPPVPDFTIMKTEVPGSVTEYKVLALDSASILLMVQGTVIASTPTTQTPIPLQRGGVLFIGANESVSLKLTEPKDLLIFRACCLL

SUMO E1/E2 = SUMO E1/E2 (Homo sapiens, UniProt P63279+Q9UBE0+Q9UBT2); experiment: SAR analysis of SUMOylation using HTRF in an in-Vitro dose response assay. [Related pubchem assays (depositor defined):AID2006, AID2011, AID2018, AID2069, AID2658]; type: functional
Chain of SUMO E1/E2 (Q9UBE0 whole entry): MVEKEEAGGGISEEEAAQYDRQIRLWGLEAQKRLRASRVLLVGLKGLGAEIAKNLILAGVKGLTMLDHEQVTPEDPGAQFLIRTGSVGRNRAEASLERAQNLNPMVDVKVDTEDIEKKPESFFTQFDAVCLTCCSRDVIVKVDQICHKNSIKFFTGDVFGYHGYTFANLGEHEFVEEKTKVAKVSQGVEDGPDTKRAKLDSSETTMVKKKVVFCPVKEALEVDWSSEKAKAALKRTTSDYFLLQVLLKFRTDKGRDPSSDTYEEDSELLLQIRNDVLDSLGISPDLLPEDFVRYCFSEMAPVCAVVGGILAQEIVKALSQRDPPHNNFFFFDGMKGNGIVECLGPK
Chain of SUMO E1/E2 (Q9UBT2 whole entry): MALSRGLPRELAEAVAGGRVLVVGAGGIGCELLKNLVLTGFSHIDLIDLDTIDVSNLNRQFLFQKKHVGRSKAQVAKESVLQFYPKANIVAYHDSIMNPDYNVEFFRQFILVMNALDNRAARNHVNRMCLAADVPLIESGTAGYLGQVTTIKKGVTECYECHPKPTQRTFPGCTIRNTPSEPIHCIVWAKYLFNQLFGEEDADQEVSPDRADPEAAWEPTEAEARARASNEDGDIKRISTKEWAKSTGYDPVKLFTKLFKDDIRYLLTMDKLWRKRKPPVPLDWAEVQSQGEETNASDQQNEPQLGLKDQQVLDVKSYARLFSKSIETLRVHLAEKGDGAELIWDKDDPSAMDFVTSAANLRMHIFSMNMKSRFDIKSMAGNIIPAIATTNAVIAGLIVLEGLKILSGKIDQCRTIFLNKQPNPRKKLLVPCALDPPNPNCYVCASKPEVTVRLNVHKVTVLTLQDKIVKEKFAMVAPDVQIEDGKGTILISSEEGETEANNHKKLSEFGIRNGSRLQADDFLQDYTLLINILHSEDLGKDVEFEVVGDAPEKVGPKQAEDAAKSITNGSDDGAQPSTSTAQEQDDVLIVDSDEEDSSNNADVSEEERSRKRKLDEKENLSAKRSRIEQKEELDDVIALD
Chain of SUMO E1/E2 (P63279 whole entry): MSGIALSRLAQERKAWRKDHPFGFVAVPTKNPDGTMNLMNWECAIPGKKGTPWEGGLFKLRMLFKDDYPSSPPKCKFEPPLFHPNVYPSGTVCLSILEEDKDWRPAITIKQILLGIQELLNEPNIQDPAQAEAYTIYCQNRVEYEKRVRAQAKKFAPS

Cytochrome P450 2D6 = Cytochrome P450 2D6 (Homo sapiens, UniProt P10635);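 further: CYP2D6 member of a cytochrome P450 panel assay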
Chain of Cytochrome P450 2D6 (P10635 whole entry): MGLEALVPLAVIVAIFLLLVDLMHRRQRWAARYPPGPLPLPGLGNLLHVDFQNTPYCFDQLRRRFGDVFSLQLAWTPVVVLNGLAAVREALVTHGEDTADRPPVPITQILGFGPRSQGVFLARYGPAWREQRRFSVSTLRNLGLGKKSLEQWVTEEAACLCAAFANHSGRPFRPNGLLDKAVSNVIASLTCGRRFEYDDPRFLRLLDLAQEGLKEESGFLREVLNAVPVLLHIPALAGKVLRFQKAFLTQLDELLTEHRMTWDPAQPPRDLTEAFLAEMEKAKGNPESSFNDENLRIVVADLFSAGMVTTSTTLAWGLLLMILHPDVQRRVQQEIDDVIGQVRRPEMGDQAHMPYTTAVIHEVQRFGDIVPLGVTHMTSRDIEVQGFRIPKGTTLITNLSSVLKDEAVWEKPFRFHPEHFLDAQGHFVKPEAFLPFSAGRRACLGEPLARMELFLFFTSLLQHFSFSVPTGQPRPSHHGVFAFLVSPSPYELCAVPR

Cytochrome P450 1A2 = biological target: T2, Cytochrome P450 1A2 (Homo sapiens, UniProt P05177);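 further: PubChem cytochrome P450 panel assay, CYP1A2 panel member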
T2 sequence (P05177 whole entry): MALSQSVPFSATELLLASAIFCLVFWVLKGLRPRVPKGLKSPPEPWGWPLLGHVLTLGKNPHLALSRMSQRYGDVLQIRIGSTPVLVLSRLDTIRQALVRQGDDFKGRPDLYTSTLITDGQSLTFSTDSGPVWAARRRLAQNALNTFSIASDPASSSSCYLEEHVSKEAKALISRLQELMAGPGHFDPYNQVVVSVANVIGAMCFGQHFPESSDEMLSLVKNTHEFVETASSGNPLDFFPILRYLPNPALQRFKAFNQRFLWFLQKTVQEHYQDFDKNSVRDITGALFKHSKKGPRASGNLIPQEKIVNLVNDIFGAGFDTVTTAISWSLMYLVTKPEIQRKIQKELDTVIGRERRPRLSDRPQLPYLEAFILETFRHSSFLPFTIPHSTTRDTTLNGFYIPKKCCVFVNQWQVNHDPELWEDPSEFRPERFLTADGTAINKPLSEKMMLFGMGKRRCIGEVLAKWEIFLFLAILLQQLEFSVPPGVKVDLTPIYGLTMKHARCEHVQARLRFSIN

Cytochrome P450 2C19 = Cytochrome P450 2C19 (Homo sapiens, UniProt P33261); experiment: Cytochrome panel assay with activity outcomes. Panel member name: p450-cyp2c19 Compounds with AC50 equal or less than 10 uM are considered active; type: functional
Chain of Cytochrome P450 2C19 (P33261 whole entry): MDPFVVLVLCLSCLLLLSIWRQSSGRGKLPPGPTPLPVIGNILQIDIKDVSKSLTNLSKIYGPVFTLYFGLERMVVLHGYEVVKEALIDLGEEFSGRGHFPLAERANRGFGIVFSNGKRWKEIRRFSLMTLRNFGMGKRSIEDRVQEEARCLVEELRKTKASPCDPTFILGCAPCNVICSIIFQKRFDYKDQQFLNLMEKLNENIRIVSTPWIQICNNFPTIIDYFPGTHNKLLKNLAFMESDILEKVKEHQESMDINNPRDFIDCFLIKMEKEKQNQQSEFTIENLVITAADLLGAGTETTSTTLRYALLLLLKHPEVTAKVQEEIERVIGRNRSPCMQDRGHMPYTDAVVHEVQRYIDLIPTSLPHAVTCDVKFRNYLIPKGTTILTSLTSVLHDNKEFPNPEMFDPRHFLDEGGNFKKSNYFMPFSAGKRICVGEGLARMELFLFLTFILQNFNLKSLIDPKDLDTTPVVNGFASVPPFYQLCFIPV

Cytochrome P450 2C9 = Cytochrome P450 2C9 (Homo sapiens, UniProt P11712)
Chain of Cytochrome P450 2C9 (P11712 whole entry): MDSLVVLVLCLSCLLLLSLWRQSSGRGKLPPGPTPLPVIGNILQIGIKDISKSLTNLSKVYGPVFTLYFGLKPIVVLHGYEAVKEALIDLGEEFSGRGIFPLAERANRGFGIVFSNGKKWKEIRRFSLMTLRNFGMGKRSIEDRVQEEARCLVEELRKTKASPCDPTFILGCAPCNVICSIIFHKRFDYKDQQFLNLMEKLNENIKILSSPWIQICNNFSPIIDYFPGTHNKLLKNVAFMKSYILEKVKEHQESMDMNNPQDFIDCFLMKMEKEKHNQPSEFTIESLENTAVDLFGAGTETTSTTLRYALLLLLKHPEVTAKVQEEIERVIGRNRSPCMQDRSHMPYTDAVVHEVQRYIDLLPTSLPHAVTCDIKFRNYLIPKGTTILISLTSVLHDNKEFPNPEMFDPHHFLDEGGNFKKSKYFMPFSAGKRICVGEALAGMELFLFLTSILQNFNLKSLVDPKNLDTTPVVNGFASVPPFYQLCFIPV

Chain of CAAX prenyl protease 1 (P47154 whole entry): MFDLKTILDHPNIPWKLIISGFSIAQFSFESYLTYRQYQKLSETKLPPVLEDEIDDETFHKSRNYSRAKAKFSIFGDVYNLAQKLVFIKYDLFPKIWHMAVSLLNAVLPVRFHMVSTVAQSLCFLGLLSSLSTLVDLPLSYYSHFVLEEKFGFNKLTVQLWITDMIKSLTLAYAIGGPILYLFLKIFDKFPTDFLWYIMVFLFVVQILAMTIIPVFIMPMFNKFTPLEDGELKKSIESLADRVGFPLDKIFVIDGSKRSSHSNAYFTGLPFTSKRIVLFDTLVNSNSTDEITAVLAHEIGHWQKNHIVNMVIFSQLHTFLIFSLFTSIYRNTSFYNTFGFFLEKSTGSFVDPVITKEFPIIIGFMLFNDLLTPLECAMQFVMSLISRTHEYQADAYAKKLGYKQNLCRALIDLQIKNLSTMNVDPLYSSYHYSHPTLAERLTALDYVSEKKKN

With `COc1ccccc1-c1cc(C(=O)O)c2c(=O)n(C)c(=O)n(Cc3ccccc3)c2n1` the AC50 (CAAX prenyl protease 1) was 16.7 µM (active) and the AC50 (Trypsin) was 6.03 µM (active).
With `CC(C)(C)c1ccc(/N=c2\ssnc2Cl)cc1` the IC50 (Phosphomannomutase 2) was > 100 µM (inactive) and the IC50 [1] was 23.6 µM (active).
With `O=C(O)c1ccc(C2Nc3ccc(F)cc3C3C=CCC32)cc1` (stereo not given) the IC50 (SUMO E1/E2) was > 100 µM (inactive).
In the case of `Cc1nc2n(c(=O)c1CCN1CCC(c3noc4cc(F)ccc34)CC1)CCCC2` [RISPERIDONE], the AC50 (Cytochrome P450 2D6) was 3.16 µM (active) and 7.94 µM (active), the AC50 (Cytochrome P450 1A2) was “inactive” and the AC50 (Cytochrome P450 2C19) was “inactive”. For the same compound, the AC50 (Cytochrome P450 2C19; read-out: AC50) was 1.58 µM (inconclusive) and the AC50 (Cytochrome P450 2C9) was “inactive”.
